The subject of one data set is P. morganii ATCC 25830. Description: In vitro antibacterial activity (MIC). The class given is cell-based. The note with it: Morganella morganii, ATCC25830.
The subject of the next data set is S. faecalis 55. Briefly: In vitro antibacterial activity (MIC). Particulars: Enterococcus faecalis. It is filed as cell-based.
Another data set has as its system Escherichia coli K 12. Description: In vitro antibacterial activity (MIC). The class given is cell-based. The note with it: K12.
Another data set deals with P. rettgeri ATCC 925. Description: In vitro antibacterial activity (MIC). The class given is cell-based. The note with it: Providencia rettgeri, ATCC925.
For another data set, the system named is C. freundii 4051 cef. R. Description: In vitro antibacterial activity (MIC). It is filed as cell-based. The note with it: Citrobacter freundii.
The subject of data set [1] is Staphylococcus aureus Smith. Briefly: In vitro antibacterial activity (MIC). It is filed as cell-based.
The next data set has as its system E. coli R997 (HSM-1). Briefly: In vitro antibacterial activity (MIC). The class given is cell-based. The note with it: Escherichia coli.
Another data set has as its system S. aureus 5635 MR. Description: In vitro antibacterial activity (MIC). It is filed as cell-based. Particulars: Staphylococcus aureus.
The subject of another data set is P. vulgaris 51. Description: In vitro antibacterial activity (MIC). The class given is cell-based. The note with it: Proteus vulgaris.
The next data set has as its system P. aeruginosa ATCC 19660. Briefly: In vitro antibacterial activity (MIC). The note with it: Pseudomonas aeruginosa, ATCC19660. It is filed as cell-based.
Data set [2] deals with gram-positive and gram-negative bacteria. Briefly: Control and treatment of experimental infections in the mouse. It is filed as in vivo.
For the next data set, the system named is S. faecalis ATCC 6057. Description: In vitro antibacterial activity (MIC). The class given is cell-based. Particulars: Enterococcus faecalis, ATCC6057.
The next data set has as its system S. faecium ATCC 8043. Description: In vitro antibacterial activity (MIC). Particulars: Enterococcus faecium, ATCC8043. The class given is cell-based.
The next data set has as its system Escherichia coli G. Briefly: Therapeutic efficacy against experimental infections in the mouse. The note with it: therapy 0.5-1.5-6 hours after infection, read-out: ED50 (cumulative dose). The class given is in vivo.
For the next data set, the system named is E. aerogenes F46. Description: In vitro antibacterial activity (MIC). The class given is cell-based. The note with it: Klebsiella aerogenes.
The test system of data set [3] is Enterobacter cloacae 1321E. Briefly: In vitro antibacterial activity (MIC). The class given is cell-based.
The test system of data set [4] is Proteus mirabilis FI 7474. Description: In vitro antibacterial activity (MIC). The note with it: FI7474. It is filed as cell-based.
For data set [5], the system named is Streptococcus pyogenes ATCC 12384. Description: In vitro antibacterial activity (MIC). The class given is cell-based. Particulars: ATCC12384.
For the next data set, the system named is S. salivarius ATCC 9758. Description: In vitro antibacterial activity (MIC). It is filed as cell-based. Particulars: Streptococcus salivarius, ATCC9758.
Data set [6] relates to Serratia marcescens ATCC 2902. Description: In vitro antibacterial activity (MIC). The note with it: ATCC2902. The class given is cell-based.
Data set [7] concerns Shigella flexneri ATCC 11836. Description: In vitro antibacterial activity (MIC). The class given is cell-based. The note with it: ATCC11836.
The test system of data set [8] is K. Aerogenes 1082 E cef. R. Briefly: In vitro antibacterial activity (MIC). It is filed as cell-based. The note with it: Klebsiella aerogenes.
For the next data set, the system named is S. aureus 2101 MR. Briefly: In vitro antibacterial activity (MIC). The note with it: Staphylococcus aureus. It is filed as cell-based.
Data set [9] deals with Klebsiella aerogenes 1522E. Briefly: In vitro antibacterial activity (MIC). It is filed as cell-based.
The test system of another data set is E. aerogenes 225. Briefly: In vitro antibacterial activity (MIC). It is filed as cell-based. The note with it: Klebsiella aerogenes.
For another data set, the system named is E. cloacae P99 cef. R. Description: In vitro antibacterial activity (MIC). It is filed as cell-based. Particulars: Enterobacter cloacae, P99CEF.R.
For another data set, the system named is A. calcolaceticus N 409. Briefly: In vitro antibacterial activity (MIC). The class given is cell-based.
Data set [10] has as its system Pseudomonas aeruginosa 2598. Description: In vitro antibacterial activity (MIC). The class given is cell-based.
Data set [11] has as its system Cirobacter freundii ATCC 8090. Description: In vitro antibacterial activity (MIC). The class given is cell-based.
A further data set has as its system E. coli B cef. R. Description: In vitro antibacterial activity (MIC). The note with it: Escherichia coli. It is filed as cell-based.
For data set [12], the system named is Salmonella typhi ATCC 14028. Briefly: In vitro antibacterial activity (MIC). The note with it: Salmonella enterica, read-out: In vitro MIC. The class given is cell-based.
Data set [13] concerns Acinetobacter calcoaceticus Bg 3. Briefly: In vitro antibacterial activity (MIC). The note with it: BG3. It is filed as cell-based.
Data set [14] concerns S. epidermidis ATCC 12228. Description: In vitro antibacterial activity (MIC). It is filed as cell-based. Particulars: Staphylococcus epidermidis, ATCC12228.
In the next data set the test system is S. aureus 39/2 Pen^+. Briefly: In vitro antibacterial activity (MIC). The note with it: Staphylococcus aureus. It is filed as cell-based.
The next data set has as its system S. aureus 2 MR. Briefly: In vitro antibacterial activity (MIC). It is filed as cell-based. Particulars: Staphylococcus aureus.
Data set [15] has as its system Providencia stuartii Bs 60. Description: In vitro antibacterial activity (MIC). It is filed as cell-based. The note with it: BS60.
For data set [16], the system named is Staphylococcus aureus Smith. Briefly: Therapeutic efficacy against experimental infections in the mouse. The class given is in vivo. The note with it: sc, subcutaneous administration, therapy 2 hours after infection, read-out: ED50 (cumulative dose).
Data set [17] is described as follows: Pharmacokinetic parameters of prodrug esters. The note with it: mouse; last line of Table 4. The class given is in vivo.
For the next data set, the system named is bacterial β-lactamases. Briefly: Stability towards bacterial β-lactamases. The class given is in vitro ADME. The note with it: compared with the prior-described mixture.
The nature of data set [18]: Chemical stability over the whole pH-range. The class given is physicochemical. The note with it: compared with the prior-described mixture.
A further data set deals with renal dehydropeptidases. Briefly: Stability towards renal dehydropeptidases. The class given is in vitro ADME. The note with it: compared with the prior-described mixture.

In brackets after ≈: the same amount, converted by molar mass. Read-outs that look alike come from different tables or passages of the source.

`COCC1=C(C(=O)O)N2C(=O)[C@H]([C@@H](C)O)[C@H]2S1` [5R,6S,1'R isomer]: the MIC turned out to be 1.56 µg/mL (≈ 6.02 µM) in the data set with P. morganii ATCC 25830; 3.12 µg/mL (≈ 12 µM) in the data set on S. faecalis 55; 0.39 µg/mL (≈ 1.5 µM) with Escherichia coli K 12; 1.56 µg/mL (≈ 6.02 µM) in the data set with P. rettgeri ATCC 925; 6.25 µg/mL (≈ 24.1 µM) with C. freundii 4051 cef. R; 0.09 µg/mL (≈ 0.347 µM) in data set [1]. Also, the minimal inhibitory concentration (MIC) is 0.39 µg/mL (≈ 1.5 µM) against E. coli R997 (HSM-1); 0.19 µg/mL (≈ 0.733 µM) against S. aureus 5635 MR; 0.39 µg/mL (≈ 1.5 µM) in the data set with P. vulgaris 51; over 25 µg/mL against P. aeruginosa ATCC 19660; 1.56 µg/mL (≈ 6.02 µM) with S. faecalis ATCC 6057; 3.12 µg/mL (≈ 12 µM) in the data set with S. faecium ATCC 8043. The MIC in the data set with E. aerogenes F46 turned out to be 0.78 µg/mL (≈ 3.01 µM); in data set [3], 0.39 µg/mL (≈ 1.5 µM); in data set [4] it was 0.78 µg/mL (≈ 3.01 µM); in data set [5] it was 0.022 µg/mL (≈ 0.0848 µM); against S. salivarius ATCC 9758, 0.022 µg/mL (≈ 0.0848 µM); in data set [6], 6.25 µg/mL (≈ 24.1 µM). Besides, the MIC in data set [7] worked out at 0.19 µg/mL (≈ 0.733 µM); in data set [8], 0.39 µg/mL (≈ 1.5 µM); in the data set with S. aureus 2101 MR it was 3.12 µg/mL (≈ 12 µM); in [9], 0.39 µg/mL (≈ 1.5 µM); in the data set on E. aerogenes 225 it was 0.78 µg/mL (≈ 3.01 µM); against E. cloacae P99 cef. R., 0.39 µg/mL (≈ 1.5 µM). The MIC in the data set with A. calcolaceticus N 409 is 6.25 µg/mL (≈ 24.1 µM); in [10], over 25 µg/mL; in data set [11] it was 0.39 µg/mL (≈ 1.5 µM); with E. coli B cef. R it was 0.78 µg/mL (≈ 3.01 µM); in data set [12], 0.39 µg/mL (≈ 1.5 µM); in [13], 1.56 µg/mL (≈ 6.02 µM). The MIC in data set [14] was 0.09 µg/mL (≈ 0.347 µM); in the data set on S. aureus 39/2 Pen^+, 0.09 µg/mL (≈ 0.347 µM); in the data set on S. aureus 2 MR, 3.12 µg/mL (≈ 12 µM); in data set [15] it was 3.12 µg/mL (≈ 12 µM). The “efficacy in the control and treatment of experimental infections” value in [2] is “excellent efficacy”. Further, the ED50 with Escherichia coli G (sc, subcutaneous administration) amounted to 6.7 mg/kg; in data set [16], 0.21 mg/kg.
Turning to `COCC1=C(C(=O)OCOC(C)=O)N2C(=O)[C@H]([C@@H](C)O)[C@H]2S1` [Compound 1, Acetoxymethyl (5R,6S)-6-[l(R)-Hydroxyethyl]-2-Methoxymethyl-Penem-3-Carboxylate], the “[drawing 32] (parameter name shown only as drawing)” value in data set [17] worked out at 7.
Regarding `COCC1=C(C(=O)OCc2oc(=O)oc2C)N2C(=O)[C@H]([C@@H](C)O)[C@H]2S1` [Compound 20, (5-Methyl-2-Oxo-1,3-Dioxolen-4-yl)Methyl (5R,6S)-6-[1(R)-Hydroxyethyl]-2-Methoxymethyl-Penem-3-Carboxylate], the ED50 in the data set with Escherichia coli G (oral administration) was determined as 13.1 mg/kg. Also, in data set [17], the “[drawing 32] (parameter name shown only as drawing)” value was 7.
For the compound `CC(=O)OCOC(=O)C1=C(COC(N)=O)S[C@@H]2[C@@H]([C@@H](C)O)C(=O)N12` [FCE 22891, reference compound], the “[drawing 32] (parameter name shown only as drawing)” value in [17] is given as 6.
In the case of `COCC1=C(C(=O)O)N2C(=O)[C@H]([C@@H](C)O)[C@H]2S1` [compound of formula (I), (5R,6S, 1'R)-configured 6-(1-hydroxyethyl)-2-methoxymethyl-penem-3-carboxylic acid], in the data set on bacterial β-lactamases, the “stability towards bacterial β-lactamases” value is on record as “superior stability”. For the same compound, in data set [18], the chemical stability entry is recorded as “considerably improved chemical stability”. Besides, the “stability towards renal dehydropeptidases” value in the data set on renal dehydropeptidases is “superior stability”.
